In PMC10885153, “Membrane Permeability in a Large Macrocyclic Peptide Driven by a Saddle-Shaped Conformation” (Journal of the American Chemical Society, 2024):
Positions of bridges follow the written chain, without caps; N, C: chain ends. Non-standard residues stand in square brackets, D forms with d. Residues, ends and D or L forms follow the SMILES beside them. NMeC = CN[C@@H](CS)C(=O)O; NMeA = CN[C@@H](C)C(=O)O; dAbu = CC[C@@H](N)C(=O)O; dNMeA = CN[C@H](C)C(=O)O; Abu = CC[C@H](N)C(=O)O; Nleu = CC(C)CNCC(=O)O; NEtG = CCNCC(=O)O

assay: in vitro; details: PAMPA, pH 7.4, PAMPA Pe_avg
Experimental: Passive permeabilities of the 36 compounds were measured in multiplex as mixtures of six compounds each using the parallel artificial membrane permeability assay (PAMPA).[44]−[46]
Protocol is identical for both mixture and pure compound analysis.
Two of the following: Carbamazepine (CBZ), propranolol (Prop), and 1NMe35 were
included as internal standards and prepared as DMSO stocks at a concentration of 2 000 µM.
assay was carried out with a 96-well donor plate with 0.45 μ hydrophobic Immobilon-P membrane supports
(Millipore MAIPNTR10) and a 96-well Teflon acceptor plate (Millipore MSSACCEPTOR).
protocol then proceeded as follows:
Donor well solutions were prepared to a volume of 1 000 µL with the analytes as a solution in 1X
PBS pH 7.4 and 5% DMSO. To a 3 mL Eppendorf tube was added 950 µL of 1X PBS pH 7.4, 40
The solutions were vortexed and set aside.
Analyte – 10 µM per compound
A 1% solution of soy lecithin in dodecane was freshly prepared in a 3 mL Eppendorf tube and
sonicated (5 min) to ensure full dissolution of the lecithin. The donor membrane plate was turned
upside down and bottom of the membranes exposed. 5 µL of the 1% soy lecithin solution in
dodecane was then placed on the bottom of the membrane, allowing the drop to spread across the
full area of the membrane. Any membranes with visible damage were not used in the assay.
membranes were allowed to equilibrate for 5 min before loading.
Each well within the Teflon block acceptor plate that was to be used in the assay was then loaded
with 300 µL of 1X PBS pH 7.4 and 5% DMSO.
Working without break, 150 µL of each donor well solution was transferred from the to the 96-well
donor plate. Each mixture of interest was r un in quadruplicate, using a new well for each replicate.
As soon as the 96-well donor plate was finished being loaded, it was gently placed into the 96-well
Teflon acceptor plate, taking care not to trap any air bubbles beneath the membrane.
The donor/acceptor plates were covered gently with the lid to minimize evaporation and transferred
gently as a system to a sealed chamber and left to sit overnight at room temperature. The chamber
was kept from drying by placing a wet paper towel within to prevent evaporation.
After ~19-20 hours the donor plate was removed from the acceptor plate.
50 µL of each well (donor and acceptor) were transferred to a 96 -well plate and diluted with 50 µL
of methanol prior to heat sealing and quantification by UPLC -MS.

SMILES	Papp at 10 µM [×10⁻⁶ cm/s]
CCOC(=O)[C@@H]1CSCC(=O)N[C@@H](CC)C(=O)N(C)[C@@H](C)C(=O)N[C@H](CC(C)C)C(=O)N2CCC[C@@H]2C(=O)N(CC)CC(=O)N[C@H](CC(C)C)C(=O)N(C)[C@@H](C)C(=O)N[C@@H](CC(C)C)C(=O)N1C [JF206_ADL_LDDL_Ethyl] ({CH2CO}-[Abu][NMeA][dL][dP][NEtG][dL][NMeA]L[NMeC]-OEt; thioether N-9)	0.315
CCOC(=O)[C@@H]1CSCC(=O)N[C@H](CC)C(=O)N(C)[C@@H](C)C(=O)N[C@@H](CC(C)C)C(=O)N2CCC[C@H]2C(=O)N(CC(C)C)CC(=O)N[C@@H](CC(C)C)C(=O)N(C)[C@H](C)C(=O)N[C@@H](CC(C)C)C(=O)N1C [JF206_ALD_DLLD_Isobutyl] ({CH2CO}-[dAbu][NMeA]LP[Nleu]L[dNMeA]L[NMeC]-OEt; thioether N-9)	0.117
CCOC(=O)[C@@H]1CSCC(=O)N[C@@H](CC)C(=O)N(C)[C@@H](C)C(=O)N[C@@H](CC(C)C)C(=O)N2CCC[C@@H]2C(=O)N(CC)CC(=O)N[C@H](CC(C)C)C(=O)N(C)[C@@H](C)C(=O)N[C@@H](CC(C)C)C(=O)N1C [JF206_ADL_LLDL_Ethyl] ({CH2CO}-[Abu][NMeA]L[dP][NEtG][dL][NMeA]L[NMeC]-OEt; thioether N-9)	0.011
CCOC(=O)[C@@H]1CSCC(=O)N[C@@H](CC)C(=O)N(C)[C@@H](C)C(=O)N[C@@H](CC(C)C)C(=O)N2CCC[C@@H]2C(=O)N(CC)CC(=O)N[C@@H](CC(C)C)C(=O)N(C)[C@H](C)C(=O)N[C@@H](CC(C)C)C(=O)N1C [JF206_ADL_LLLD_Ethyl] ({CH2CO}-[Abu][NMeA]L[dP][NEtG]L[dNMeA]L[NMeC]-OEt; thioether N-9)	0.326
CCOC(=O)[C@@H]1CSCC(=O)N[C@@H](CC)C(=O)N(C)[C@@H](C)C(=O)N[C@@H](CC(C)C)C(=O)N2CCC[C@H]2C(=O)N(CC)CC(=O)N[C@@H](CC(C)C)C(=O)N(C)[C@@H](C)C(=O)N[C@@H](CC(C)C)C(=O)N1C [JF206_ALL_LLLL_Ethyl] ({CH2CO}-[Abu][NMeA]LP[NEtG]L[NMeA]L[NMeC]-OEt; thioether N-9)	0.678
CCOC(=O)[C@@H]1CSCC(=O)N[C@H](CC)C(=O)N(C)[C@@H](C)C(=O)N[C@@H](CC(C)C)C(=O)N2CCC[C@@H]2C(=O)N(CC)CC(=O)N[C@H](CC(C)C)C(=O)N(C)[C@@H](C)C(=O)N[C@@H](CC(C)C)C(=O)N1C [JF206_ADD_DLDL_Ethyl] ({CH2CO}-[dAbu][NMeA]L[dP][NEtG][dL][NMeA]L[NMeC]-OEt; thioether N-9)	0.003
CCOC(=O)[C@@H]1CSCC(=O)N[C@@H](CC)C(=O)N(C)[C@@H](C)C(=O)N[C@H](CC(C)C)C(=O)N2CCC[C@@H]2C(=O)N(CC)CC(=O)N[C@@H](CC(C)C)C(=O)N(C)[C@@H](C)C(=O)N[C@@H](CC(C)C)C(=O)N1C [JF206_ADL_LDLL_Ethyl] ({CH2CO}-[Abu][NMeA][dL][dP][NEtG]L[NMeA]L[NMeC]-OEt; thioether N-9)	0.013
CCOC(=O)[C@@H]1CSCC(=O)N[C@H](CC)C(=O)N(C)[C@@H](C)C(=O)N[C@H](CC(C)C)C(=O)N2CCC[C@H]2C(=O)N(CC)CC(=O)N[C@H](CC(C)C)C(=O)N(C)[C@@H](C)C(=O)N[C@@H](CC(C)C)C(=O)N1C [JF206_ALD_DDDL_Ethyl] ({CH2CO}-[dAbu][NMeA][dL]P[NEtG][dL][NMeA]L[NMeC]-OEt; thioether N-9)	0.18
CCOC(=O)[C@@H]1CSCC(=O)N[C@@H](CC)C(=O)N(C)[C@@H](C)C(=O)N[C@H](CC(C)C)C(=O)N2CCC[C@H]2C(=O)N(CC)CC(=O)N[C@H](CC(C)C)C(=O)N(C)[C@H](C)C(=O)N[C@@H](CC(C)C)C(=O)N1C [JF206_ALL_LDDD_Ethyl] ({CH2CO}-[Abu][NMeA][dL]P[NEtG][dL][dNMeA]L[NMeC]-OEt; thioether N-9)	0.623
CCOC(=O)[C@@H]1CSCC(=O)N[C@H](CC)C(=O)N(C)[C@@H](C)C(=O)N[C@H](CC(C)C)C(=O)N2CCC[C@H]2C(=O)N(CC(C)C)CC(=O)N[C@@H](CC(C)C)C(=O)N(C)[C@H](C)C(=O)N[C@@H](CC(C)C)C(=O)N1C [JF206_ALD_DDLD_Isobutyl] ({CH2CO}-[dAbu][NMeA][dL]P[Nleu]L[dNMeA]L[NMeC]-OEt; thioether N-9)	0.063
CCOC(=O)[C@@H]1CSCC(=O)N[C@H](CC)C(=O)N(C)[C@@H](C)C(=O)N[C@@H](CC(C)C)C(=O)N2CCC[C@H]2C(=O)N(CC)CC(=O)N[C@H](CC(C)C)C(=O)N(C)[C@@H](C)C(=O)N[C@@H](CC(C)C)C(=O)N1C [JF206_ALD_DLDL_Ethyl] ({CH2CO}-[dAbu][NMeA]LP[NEtG][dL][NMeA]L[NMeC]-OEt; thioether N-9)	0.027
CCOC(=O)[C@@H]1CSCC(=O)N[C@H](CC)C(=O)N(C)[C@@H](C)C(=O)N[C@@H](CC(C)C)C(=O)N2CCC[C@H]2C(=O)N(CC)CC(=O)N[C@@H](CC(C)C)C(=O)N(C)[C@H](C)C(=O)N[C@@H](CC(C)C)C(=O)N1C [JF206_ALD_DLLD_Ethyl] ({CH2CO}-[dAbu][NMeA]LP[NEtG]L[dNMeA]L[NMeC]-OEt; thioether N-9)	0.016
CCOC(=O)[C@@H]1CSCC(=O)N[C@@H](CC)C(=O)N(C)[C@@H](C)C(=O)N[C@@H](CC(C)C)C(=O)N2CCC[C@@H]2C(=O)N(CC(C)C)CC(=O)N[C@H](CC(C)C)C(=O)N(C)[C@@H](C)C(=O)N[C@@H](CC(C)C)C(=O)N1C [JF206_ADL_LLDL_Isobutyl] ({CH2CO}-[Abu][NMeA]L[dP][Nleu][dL][NMeA]L[NMeC]-OEt; thioether N-9)	0.229
CCOC(=O)[C@@H]1CSCC(=O)N[C@@H](CC)C(=O)N(C)[C@@H](C)C(=O)N[C@@H](CC(C)C)C(=O)N2CCC[C@H]2C(=O)N(CC)CC(=O)N[C@H](CC(C)C)C(=O)N(C)[C@H](C)C(=O)N[C@@H](CC(C)C)C(=O)N1C [JF206_ALL_LLDD_Ethyl] ({CH2CO}-[Abu][NMeA]LP[NEtG][dL][dNMeA]L[NMeC]-OEt; thioether N-9)	0.00468
CCOC(=O)[C@@H]1CSCC(=O)N[C@H](CC)C(=O)N(C)[C@@H](C)C(=O)N[C@H](CC(C)C)C(=O)N2CCC[C@H]2C(=O)N(CC)CC(=O)N[C@@H](CC(C)C)C(=O)N(C)[C@@H](C)C(=O)N[C@@H](CC(C)C)C(=O)N1C [JF206_ALD_DDLL_Ethyl] ({CH2CO}-[dAbu][NMeA][dL]P[NEtG]L[NMeA]L[NMeC]-OEt; thioether N-9)	0.00548
CCOC(=O)[C@@H]1CSCC(=O)N[C@@H](CC)C(=O)N(C)[C@@H](C)C(=O)N[C@@H](CC(C)C)C(=O)N2CCC[C@H]2C(=O)N(CC(C)C)CC(=O)N[C@H](CC(C)C)C(=O)N(C)[C@H](C)C(=O)N[C@@H](CC(C)C)C(=O)N1C [JF206_ALL_LLDD_Isobutyl] ({CH2CO}-[Abu][NMeA]LP[Nleu][dL][dNMeA]L[NMeC]-OEt; thioether N-9)	0.182
CCOC(=O)[C@@H]1CSCC(=O)N[C@@H](CC)C(=O)N(C)[C@@H](C)C(=O)N[C@H](CC(C)C)C(=O)N2CCC[C@@H]2C(=O)N(CC)CC(=O)N[C@H](CC(C)C)C(=O)N(C)[C@H](C)C(=O)N[C@@H](CC(C)C)C(=O)N1C [JF206_ADL_LDDD_Ethyl] ({CH2CO}-[Abu][NMeA][dL][dP][NEtG][dL][dNMeA]L[NMeC]-OEt; thioether N-9)	0.177
